From publication PMC6199279, “Design of Peptoid-peptide Macrocycles to Inhibit the β-catenin TCF Interaction in Prostate Cancer” (Nature Communications, 2018)
pIC50: −log10 of the molar value. Numbered stars: 1 amine (or outer) side, 2 acyl side, 3 side chain; on linkers, the order of the positions; unused ones are H or OH. Square brackets hold non-standard residues; d marks the D form. Peptide text beside a SMILES is read from it. N(2-(2-PhOPh)Et)Gly = O=C(O)CNCCc1ccccc1Oc1ccccc1; Gly(N-3,5-(OMe)2-Ph) = COc1cc(NCC(=O)O)cc(OC)c1; X1 = COc1ccc([C@H](C)N(CC(=O)[*:2])[*:1])cc1; N((CH2)3OiPr)Gly = CC(C)OCCCNCC(=O)O

Assays:
Assay type in all cases: cell-based
[1] = system: A549 (lung adenocarcinoma) cells; assay: 2D proliferation (CellTiter-Fluor viability), A549; details: Wnt-independent cell line, 5 days
[2] = system: AR luciferase reporter (3xARE); assay: 3x-Androgen Response Element (ARE) luciferase reporter assay in LNCaP-abl cells
Description: Using a TOP-Flash Wnt luciferase reporter, we tested the 12 oligomers identified from in silico modeling for inhibitory activity (Fig. 2b). […] We also employed a 3 × -Androgen Response Element (ARE) luciferase reporter to measure the effect on AR activity. […] As additional controls, we obtained previously developed, commercially available Wnt inhibitors and tested them in the Wnt luciferase assay (Supplementary Fig. 5).
We next characterized the dose response curves for compound 13 in the Wnt and AR luciferase reporters. The linear version of 13 (linear 13: NH2-|N-mpp, N-dmp, N-ipp, N-Smpe, N-Smpe, D-Ala|-OH) was used as a control compound. […] To test direct binding, we pre-formed dynamic light scattering (DLS) with β-catenin in the presence of vehicle, compound 13, and α-cyclodextrin. […] HEK293 cells were transiently transfected with a plasmid expressing full length, myc-tagged TCF4. After 48 h treatment with either vehicle (DMSO) or 10 µM 13, cells were lysed and myc-TCF4 protein was immunoprecipitated.
LNCaP-abl and LNCaP-95 cells were cultured in indicator free RPMI 1640 media (Life) supplemented with 10% charcoal stripped FBS, 1% pennicillin/streptomycin, and 1% L-Glutamine. HEK-293 Cells were cultured in DMEM media (Life) supplemented with 10%FBS and 1% pennicillin/streptomycin. A549 and U2OS cells were cultured in RPMI 1640 media (Life) and McCoy’s 5 A modified media (Life), respectively, both supplemented with 10%FBS and 1% pennicillin/streptomycin. LNCaP-abl, and LNCaP-95 cell lines were generous gifts from Z. Culig (Innsbruck Medical University, Austria) and J. Isaacs (Johns Hopkins University, Baltimore, MD), respectively. Cell lines were authenticated by STR profiling (Genetica Cell Line Testing; Burlington, NC). […] Both were measured using the ONE-Glo detection kit (Promega) and data is standardized to CellTiter-Fluor (Promega) viability readings to account for potential variations in well to well cell number. […] Total protein concentration in cell lysates were determined using Pierce Rapid Gold BCA Protein Assay Kit (Thermo). […]

[3] = system: U2OS (osteosarcoma) cells; assay: 2D proliferation (CellTiter-Fluor viability), U2OS; details: Wnt-independent cell line, 5 days

For `COc1ccc([C@H](C)N2CC(=O)N[C@H](C)C(=O)N(CCc3ccccc3Oc3ccccc3)CC(=O)N(c3cc(OC)cc(OC)c3)CC(=O)N(CCCOC(C)C)CC(=O)N([C@@H](C)c3ccc(OC)cc3)CC2=O)cc1` [Compound 13] (cyclo([dA][N(2-(2-PhOPh)Et)Gly][Gly(N-3,5-(OMe)2-Ph)][N((CH2)3OiPr)Gly][X1][X1])), which “Effect on proliferation of A549 cells” value [1] is on record?
The value was “no effect”.

What about the “Inhibition of AR signaling (3xARE luciferase)” value ([2]; 10 µM compound, relative to vehicle) of the same compound?
The value was “more effective”.

And the pIC50 ([2]; 3xARE LNCaP-abl cells, 48 h compound, androgen-activated, read-out: IC50 for inhibition of the AR luciferase reporter)?
The pIC50 was 5.99.

What about the “Effect on proliferation of U2OS cells” value [3] of the same compound?
The value was “no effect”.
